Broadly, the IC50 is the midpoint of a concentration-inhibition curve.

Structures are written as SMILES. Read-outs that look alike come from different tables or passages of the source.

The values below come from patent US20150018546A1, “HETEROCYCLIC COMPOUND HAVING ANTI-HIV ACTIVITY” (TOYAMA CHEMICAL CO., LTD., priority 2012, published 2015).

This experiment has as its system HIV-1 (JRCSF). Nature of the experiment: Anti-HIV activity in MaRBLE cells infected with HIV-1 (JRCSF), luciferase readout. The format is cell-based. The note with it: MaRBLE cells (human T lymphocyte-derived HPB-M(a)) infected with HIV-1 (JRCSF), 7 days culture, rate of viral proliferation by luciferase activity, read-out: Anti-HIV activity IC50. The procedure: This test was conducted with reference to Journal of Clinical Microbiology, 2007, Vol. 45, p. 477-487.
The anti-HIV activity was evaluated using MaRBLE cells in which a luciferase gene to be expressed under the control of HIV-1 LTR and a CCR5 gene, etc. were introduced in human T lymphocyte-derived HPB-M(a).
A fresh medium or each appropriately diluted test compound was dispensed to 96-well plates to prepare drug solution-containing plates.
The MaRBLE cells were suspended in RPMI1640 containing 10% FCS (fetal calf serum) and penicillin/streptomycin and infected with HIV-1 (JRCSF). Then, the cells were inoculated to the drug solution-containing plates (1×10^5 cells/well). The same number of uninfected cells were inoculated as a control group to the drug solution-containing plates.
After culture at 37° C. for 7 days in a 5% CO2 atmosphere, the intracellular luciferase activity was measured using Steady-Glo Luciferase assay system (Promega Corp.).
The rate of viral proliferation was determined according to the following expression:
Rate of viral proliferation(%)=(A/B)×100
A=(Firefly luciferase activity of the compound-supplemented well)−(Firefly luciferase activity of the uninfected cells)
B=(Firefly luciferase activity of the compound-free well)−(Firefly luciferase activity of the uninfected cells)
IC50 of the compound was calculated by a plot with concentration as the logarithm and the rate of viral proliferation as the real part using the FORECAST function (linear regression method) of Microsoft Office Excel 2003.

Setting [1] is: Human immunodeficiency virus 1, 168 h.

As for `Cc1ncnc2c1c(NCc1ccccc1O)cc(=O)n2O` [Example 112, 8-hydroxy-5-((2-hydroxybenzyl)amino)-4-methylpyrido[2,3-d]pyrimidin-7(8H)-one], under setting [1], the IC50 was determined as 28 nM.
Still for that read-out and setting: then `Cc1ncnc2c1c(NCc1ccc(O)c(O)c1)cc(=O)n2O` [Example 113, 5-((3,4-dihydroxybenzyl)amino)-8-hydroxy-4-methylpyrido[2,3-d]pyrimidin-7(8H)-one], with 73 nM; and `Cc1ncnc2c1c(NCc1cccc(O)c1)cc(=O)n2O` [Example 114, 8-hydroxy-5-((3-hydroxybenzyl)amino)-4-methylpyrido[2,3-d]pyrimidin-7(8H)-one], with 42 nM; and `O=c1cc(NCc2ccccc2)c2c(O)ncnc2n1O` [Example 115, 5-(benzylamino)-4,8-dihydroxypyrido[2,3-d]pyrimidin-7(8H)-one], with 150 nM.
Still for that read-out and setting: then `Cc1ncnc2c1c(NCc1ccccc1NS(C)(=O)=O)cc(=O)n2O` [Example 122, N-(2-(((8-hydroxy-4-methyl-7-oxo-7,8-dihydropyrido[2,3-d]pyrimidin-5-yl)amino)methyl)phenyl)methanesulfonamide], with 100 nM; and `Cc1ncnc2c1c(NCc1ccccc1N)cc(=O)n2O` [Example 123, 5-((2-aminobenzyl)amino)-8-hydroxy-4-methylpyrido[2,3-d]pyrimidin-7(8H)-one], with 78 nM; and `Cc1ncnc2c1c(NCc1cnc3ccccc3c1)cc(=O)n2O` [Example 124, 8-hydroxy-4-methyl-5-(((quinolin-3-yl)methyl)amino)pyrido[2,3-d]pyrimidin-7(8H)-one], with 58 nM.
On the same count and under the same terms, then `Cc1ncnc2c1c(NCc1ccc(N)cc1)cc(=O)n2O` [Example 125, 5-((4-aminobenzyl)amino)-8-hydroxy-4-methylpyrido[2,3-d]pyrimidin-7(8H)-one], with 63 nM.
In the case of `Cc1ncnc2c1c(NCc1cccc(NS(C)(=O)=O)c1)cc(=O)n2O` [Example 126, N-(3-(((8-hydroxy-4-methyl-7-oxo-7,8-dihydropyrido[2,3-d]pyrimidin-5-yl)amino)methyl)phenyl)methanesulfonamide], the IC50 under setting [1] came to 140 nM.
Turning to `Cc1ncnc2c1c(N)cc(=O)n2O` [Example 127, 5-amino-8-hydroxy-4-methylpyrido[2,3-d]pyrimidin-7(8H)-one], the IC50 under setting [1] was 150 nM.
With `Cc1ncnc2c1c(NCc1ccc(NS(C)(=O)=O)cc1)cc(=O)n2O` [Example 128, N-(4-(((8-hydroxy-4-methyl-7-oxo-7,8-dihydropyrido[2,3-d]pyrimidin-5-yl)amino)methyl)phenyl)methanesulfonamide], under setting [1], the half-maximal inhibitory concentration (IC50) was 270 nM.
Consider `Cc1ncnc2c1c(NCc1cccc(N)c1)cc(=O)n2O` [Example 129, 5-((3-aminobenzyl)amino)-8-hydroxy-4-methylpyrido[2,3-d]pyrimidin-7(8H)-one], for which the IC50 under setting [1] is 91 nM.
Same read-out and setting: then `Cc1ncnc2c1c(NCc1cccc(CN)c1)cc(=O)n2O` [Example 132, 5-((3-(aminomethyl)benzyl)amino)-8-hydroxy-4-methylpyrido[2,3-d]pyrimidin-7(8H)-one], with 210 nM; and `Cc1ncnc2c1c(NCc1cnccc1C(F)(F)F)cc(=O)n2O` [Example 133, 8-hydroxy-4-methyl-5-(((4-(trifluoromethyl)pyridin-3-yl)methyl)amino)pyrido[2,3-d]pyrimidin-7(8H)-one], with 59 nM; and `Cc1ncnc2c1c(NCc1ccc(CN)cc1)cc(=O)n2O` [Example 134], with 140 nM.
Regarding `Cc1cncc(CNc2cc(=O)n(O)c3ncnc(C)c23)c1` [Example 136, 8-hydroxy-4-methyl-5-(((5-methylpyridin-3-yl)methyl)amino)pyrido[2,3-d]pyrimidin-7(8H)-one], the IC50 under setting [1] was determined as 120 nM.
The same measure, in the same setting: then `Cc1cccc(CNc2cc(=O)n(O)c3ncnc(C)c23)c1` [Example 137, 8-hydroxy-4-methyl-5-((3-methylbenzyl)amino)pyrido[2,3-d]pyrimidin-7(8H)-one], with 82 nM; and `Cc1ncnc2c1c(NCc1ccccc1N1CCCCC1)cc(=O)n2O` [Example 138, 8-hydroxy-4-methyl-5-((2-(piperidin-1-yl)benzyl)amino)pyrido[2,3-d]pyrimidin-7(8H)-one], with 94 nM; and `Cc1ncnc2c1c(NCc1ccccc1CN)cc(=O)n2O` [Example 140, 5-((2-(aminomethyl)benzyl)amino)-8-hydroxy-4-methylpyrido[2,3-d]pyrimidin-7(8H)-one], with 190 nM.
Still for that read-out and setting: under `Cc1ncnc2c1c(NCc1cncc3ccccc13)cc(=O)n2O` [Example 141, 8-hydroxy-5-(((isoquinolin-4-yl)methyl)amino)-4-methylpyrido[2,3-d]pyrimidin-7(8H)-one] stands 46 nM.
Take `CC(=O)Nc1ccc(CNc2cc(=O)n(O)c3ncnc(C)c23)cc1` [Example 142, N-(4-(((8-hydroxy-4-methyl-7-oxo-7,8-dihydropyrido[2,3-d]pyrimidin-5-yl)amino)methyl)phenyl)acetamide]: the IC50 under setting [1] turned out to be 130 nM.
For `Cc1ncnc2c1c(NCc1cccc(CN(C)C)c1)cc(=O)n2O` [Example 143, 5-((3-((dimethylamino)methyl)benzyl)amino)-8-hydroxy-4-methylpyrido[2,3-d]pyrimidin-7(8H)-one], under setting [1], the IC50 is 120 nM.
The same measure, in the same setting: then `Cc1ncnc2c1c(NCc1ccc(OCCO)cc1)cc(=O)n2O` [Example 144, 8-hydroxy-5-((4-(2-hydroxyethoxy)benzyl)amino)-4-methylpyrido[2,3-d]pyrimidin-7(8H)-one], with 90 nM.
Same read-out and setting: under `Cc1ncnc2c1c(NCc1ccc(NS(=O)(=O)c3ccccc3)cc1)cc(=O)n2O` [Example 145, N-(4-(((8-hydroxy-4-methyl-7-oxo-7,8-dihydropyrido[2,3-d]pyrimidin-5-yl)amino)methyl)phenyl)benzenesulfonamide] stands 490 nM.
With `Cc1ncnc2c1c(NCc1ccc(Oc3ccccc3)nc1)cc(=O)n2O` [Example 146, 8-hydroxy-4-methyl-5-(((6-phenoxypridin-3-yl)methyl)amino)pyrido[2,3-d]pyrimidin-7(8H)-one], the IC50 was determined as 100 nM.
Take `Cc1ncnc2c1c(NCc1cccnc1OCC(F)(F)F)cc(=O)n2O` [Example 147, 8-hydroxy-4-methyl-5-(((2-(2,2,2-trifluoroethoxy)pyridin-3-yl)methyl)amino)pyrido[2,3-d]pyrimidin-7(8H)-one]: under setting [1], the IC50 turned out to be 83 nM.
With `Cc1ncnc2c1c(NCc1ccc(C(F)(F)F)cc1)cc(=O)n2O` [Example 148, 8-hydroxy-4-methyl-5-((4-(trifluoromethyl)benzyl)amino)pyrido[2,3-d]pyrimidin-7(8H)-one], the IC50 under setting [1] came to 71 nM.
Regarding `Cc1ncnc2c1c(NCc1ccccc1C(F)(F)F)cc(=O)n2O` [Example 149, 8-hydroxy-4-methyl-5-((2-(trifluoromethyl)benzyl)amino)pyrido[2,3-d]pyrimidin-7(8H)-one], under setting [1], the IC50 was found to be 26 nM.
The same measure, in the same setting: then `Cc1ncnc2c1c(NCc1ccccn1)cc(=O)n2O` [Example 150, 8-hydroxy-4-methyl-5-(((pyridin-2-yl)methyl)amino)pyrido[2,3-d]pyrimidin-7(8H)-one], with 100 nM.
For the molecule `Cc1ncnc2c1c(NCc1cccc(F)c1)cc(=O)n2O` [Example 151, 5-((3-fluorobenzyl)amino)-8-hydroxy-4-methylpyrido[2,3-d]pyrimidin-7(8H)-one], the IC50 under setting [1] turned out to be 54 nM.
